Experimental data taken from patent US10273267B2, “Beta-hairpin peptidomimetics as selective elastase inhibitors” (POLYPHOR AG, priority 2013, dated 2019).
Where a SMILES comes first, the peptide text is derived from it. [ ]: non-standard residue; d: D form. Oic = O=C(O)[C@@H]1C[C@@H]2CCCC[C@@H]2N1; Gly(octyl) = CCCCCCCC[C@H](N)C(=O)O; hTyr = N[C@@H](CCc1ccc(O)cc1)C(=O)O; Aad = N[C@@H](CCCC(=O)O)C(=O)O

Legend:
Type in all cases: biochemical
human proteinase 3 = target: T1, human proteinase 3 (Homo sapiens, UniProt P24158); assay: Inhibition of human proteinase 3 (substrate Boc-Ala-Ala-Nva-SBzl); settings: for hNE/hPr3 selectivity: ratio of hPr3 IC50 to hNE IC50; for IC50: substrate Boc-Ala-Ala-Nva-SBzl 1 mM, enzyme 10 nM, 37° C., pH7.4, read-out: Human proteinase 3 (hPr3) IC50
T1 construct: purchased Elastin Products Company, USA
T1 sequence (P24158 28-248): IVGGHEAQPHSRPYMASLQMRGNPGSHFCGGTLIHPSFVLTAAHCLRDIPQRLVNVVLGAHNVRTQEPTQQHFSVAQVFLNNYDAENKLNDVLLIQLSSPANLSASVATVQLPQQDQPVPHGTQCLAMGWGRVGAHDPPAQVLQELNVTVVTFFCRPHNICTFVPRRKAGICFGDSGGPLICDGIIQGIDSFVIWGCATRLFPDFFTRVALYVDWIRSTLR
Method in brief: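 Enzyme at 10 nM incubated at 37°C with 1 mM thiobenzyl ester substrate, 250 μM 4,4′-dithiodipyridine and serial peptide dilutions (0.5% DMSO) in Tris pH 7.4, 150 mM NaCl, 0.01% Tween20. Absorbance at 340 nm followed over 30 min; IC50 from 4-parameter Hill fit.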

[1] = target: T2, human neutrophil elastase (Homo sapiens, UniProt P08246); assay: Inhibition of human neutrophil elastase (hydrolysis of MeOSuc-AAPV-pNA); settings: substrate MeOSuc-AAPV-pNA 0.3 mM, enzyme 10 nM, 37° C., pH 8; read-out: Human neutrophil elastase (hNE) IC50
T2 construct: purchased Serva Electrophoresis, Germany
T2 sequence (P08246 30-267): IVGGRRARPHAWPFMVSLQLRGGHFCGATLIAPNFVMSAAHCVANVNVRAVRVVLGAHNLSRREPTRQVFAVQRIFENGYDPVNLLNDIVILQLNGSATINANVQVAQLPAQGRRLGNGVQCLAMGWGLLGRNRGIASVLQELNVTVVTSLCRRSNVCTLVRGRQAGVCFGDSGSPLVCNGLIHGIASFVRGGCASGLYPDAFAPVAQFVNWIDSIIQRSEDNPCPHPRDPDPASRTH
Method in brief: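 MeOSuc-AAPV-pNA (0.3 mM) hydrolysis by 10 nM enzyme at 37° C with serially diluted peptides (1% DMSO) in 50 mM Tris pH 8, 300 mM NaCl, 0.01% Tween20. pNA release read at 405 nm over 30 minutes; IC50 from 4-parameter Hill fit.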

[2] = target: T3, porcine pancreatic elastase (Sus scrofa, UniProt P00772); assay: Inhibition of porcine pancreatic elastase (hydrolysis of MeOSuc-AAA-pNA); settings: for hNE/PPE selectivity: ratio of PPE IC50 to hNE IC50; for IC50: substrate MeOSuc-AAA-pNA 1 mM, enzyme 15 nM, 37° C., pH8, read-out: Porcine pancreatic elastase (PPE) IC50
T3 construct: purchased Sigma, USA
Method in brief: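 Elastase (15 nM) incubated at 37 °C with 1 mM MeOSuc-AAA-pNA and serially diluted peptides (0.5% DMSO) in 50 mM Tris pH 8, 100 mM NaCl, 0.01% Tween20. pNA release read at 405 nm over 30 min; IC50 from 4-parameter Hill fit.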

T3 sequence (P00772 27-266): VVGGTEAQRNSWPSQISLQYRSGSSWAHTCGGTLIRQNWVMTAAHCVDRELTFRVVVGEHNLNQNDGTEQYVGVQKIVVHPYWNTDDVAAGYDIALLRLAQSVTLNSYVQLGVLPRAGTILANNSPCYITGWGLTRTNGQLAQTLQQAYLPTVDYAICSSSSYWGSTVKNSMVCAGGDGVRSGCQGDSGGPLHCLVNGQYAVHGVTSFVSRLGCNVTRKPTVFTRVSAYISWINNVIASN

SMILES | hNE/hPr3 selectivity (human proteinase 3) | IC50 (human proteinase 3) [µM] | IC50 [1] [µM] | hNE/PPE selectivity [2] | IC50 [2] [µM]
CCCCCCCC[C@@H]1NC(=O)[C@H](CCCCN)NC(=O)[C@@H](CCCCN)NC(=O)[C@H]([C@@H](C)O)NC(=O)[C@H](CCCCN)NC(=O)[C@H](CCC(N)=O)NC(=O)[C@@H]2CCCN2C(=O)[C@@H]2CCCN2C(=O)[C@H]([C@@H](C)CC)NC(=O)[C@H](CO)NC(=O)[C@H](C)NC(=O)[C@H]([C@@H](C)O)NC(=O)[C@H](CCC(=O)O)NC1=O [Example 28, Cyclo(-OctGly-Glu-Thr-Ala-Ser-Ile-Pro-Pro-GI n-Lys-Thr-^DLys-Lys-)] (cyclo([Gly(octyl)]ETASIPPQKT[dK]K)) | >8333 | > 100 | 0.012 | >8333 | > 100
CCCCCCCC[C@@H]1NC(=O)[C@H]2CCCN2C(=O)[C@H]2CCCN2C(=O)[C@H]([C@@H](C)O)NC(=O)[C@H](CCCCN)NC(=O)[C@H](CCC(N)=O)NC(=O)[C@@H]2CCCN2C(=O)[C@@H]2CCCN2C(=O)[C@H]([C@@H](C)CC)NC(=O)[C@H](CO)NC(=O)[C@H](C)NC(=O)[C@H]([C@@H](C)O)NC(=O)[C@H](CCC(=O)O)NC1=O [Example 12, Cyclo(-OctGly-Glu-Thr-Ala-Ser-Ile-Pro-Pro-GI n-Lys-Thr-^DPro-^DPro-)] (cyclo([Gly(octyl)]ETASIPPQKT[dP][dP])) | >6579 | > 100 | 0.0152 | >6579 | > 100
CCCCCCCC[C@@H]1NC(=O)[C@@H]2CCCN2C(=O)[C@H]2CCCN2C(=O)[C@H](CCCC(N)=O)NC(=O)[C@H](CCCCN)NC(=O)[C@H](CCC(N)=O)NC(=O)[C@@H]2CCCN2C(=O)[C@@H]2CCCN2C(=O)[C@H]([C@@H](C)CC)NC(=O)[C@H](CO)NC(=O)[C@H](C)NC(=O)[C@H]([C@@H](C)O)NC(=O)[C@H](CCC(=O)O)NC1=O [Example 5, Cyclo(-OctGly-Glu-Thr-Ala-Ser-Ile-Pro-Pro-Gln-Lys-hGln-^DPro-Pro-)] (cyclo([Gly(octyl)]ETASIPPQK[Aad](NH2)[dP]P)) | 237 | 2.35 | 0.0099 | 161 | 1.59
CCCCCCCC[C@@H]1NC(=O)[C@H](C(C)C)NC(=O)[C@@H](CCCCN)NC(=O)[C@H]([C@@H](C)O)NC(=O)[C@H](CCCCN)NC(=O)[C@H](CCC(N)=O)NC(=O)[C@@H]2CCCN2C(=O)[C@@H]2CCCN2C(=O)[C@H]([C@@H](C)CC)NC(=O)[C@H](CO)NC(=O)[C@H](C)NC(=O)[C@H]([C@@H](C)O)NC(=O)[C@H](CCC(=O)O)NC1=O [Example 26, Cyclo(-OctGly-Glu-Thr-Ala-Ser-Ile-Pro-Pro-GI n-Lys-Thr-^DLys-Val-)] (cyclo([Gly(octyl)]ETASIPPQKT[dK]V)) | 472 | 5 | 0.0106 | 4415 | 46.8
CCCCCCCC[C@@H]1NC(=O)[C@H](Cc2ccc(O)cc2)NC(=O)[C@@H](CO)NC(=O)[C@H]([C@@H](C)O)NC(=O)[C@H](CCCCN)NC(=O)[C@H](CCC(N)=O)NC(=O)[C@@H]2CCCN2C(=O)[C@@H]2CCCN2C(=O)[C@H]([C@@H](C)CC)NC(=O)[C@H](CO)NC(=O)[C@H](C)NC(=O)[C@H]([C@@H](C)O)NC(=O)[C@H](CCC(=O)O)NC1=O [Example 31, Cyclo(-OctGly-Glu-Thr-Ala-Ser-Ile-Pro-Pro-GI n-Lys-Thr-^DSer-Tyr-)] (cyclo([Gly(octyl)]ETASIPPQKT[dS]Y)) | 1432 | 32.8 | 0.0229 | 2275 | 52.1
CC[C@H](C)[C@@H]1NC(=O)[C@H](CO)NC(=O)[C@H](C)NC(=O)[C@H]([C@@H](C)O)NC(=O)[C@H](CCc2ccc(O)cc2)NC(=O)[C@H](CCCNC(=N)N)NC(=O)[C@@H]2CCCN2C(=O)[C@H]2CCCN2C(=O)[C@H]([C@@H](C)O)NC(=O)[C@H](CCCCN)NC(=O)[C@H](CCC(N)=O)NC(=O)[C@@H]2C[C@@H]3CCCC[C@@H]3N2C(=O)[C@@H]2CCCN2C1=O [Example 42] (cyclo(R[hTyr]TASIP[Oic]QKT[dP]P)) | >20833 | > 100 | 0.0048 | >20833 | > 100
CCCCCCCC[C@@H]1NC(=O)[C@H](CCC(=O)O)NC(=O)[C@@H](CCCCN)NC(=O)[C@H]([C@@H](C)O)NC(=O)[C@H](CCCCN)NC(=O)[C@H](CCC(N)=O)NC(=O)[C@@H]2CCCN2C(=O)[C@@H]2CCCN2C(=O)[C@H]([C@@H](C)CC)NC(=O)[C@H](CO)NC(=O)[C@H](C)NC(=O)[C@H]([C@@H](C)O)NC(=O)[C@H](CCC(=O)O)NC1=O [Example 29, Cyclo(-OctGly-Glu-Thr-Ala-Ser-Ile-Pro-Pro-Gln-Lys-Thr-^DLys-Glu-)] (cyclo([Gly(octyl)]ETASIPPQKT[dK]E)) | 5305 | 62.6 | 0.0118 | 1085 | 12.8
